Reference: ChEMBL document CHEMBL1201862, “PubChem BioAssay data set” (2004)
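96-well plates; 48 h exposure; 5 concentrations. Endpoints by linear interpolation between flanking doses. Not reached: highest tested concentration assigned. Here, GI50 denotes the concentration required for 50% inhibition of growth.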 Active and inactive are the calls of the source. Rule as the data show it: active = GI50 up to about 1.1 µM and inactive = higher.

How the values were obtained:
Test in all cases: DTP human tumour cell line panel, 48 h
[1] = test system: M14
[2] = test system: EKVX
[3] = test system: ACHN
[4] = test system: Hs-578T
[5] = test system: K562
[6] = test system: NCI-H460
[7] = test system: UACC-257
[8] = test system: UO-31
[9] = test system: SF-268
[10] = test system: NCI-H522
[11] = test system: OVCAR-3
[12] = test system: RXF 393
[13] = test system: CCRF-CEM
[14] = test system: SK-OV-3
[15] = test system: LOX IMVI
[16] = test system: HOP-62
[17] = test system: NCI-H23
[18] = test system: OVCAR-8
[19] = test system: HCT-116
[20] = test system: MCF7

Row | Structure (SMILES) | GI50 [1] | GI50 [2] | GI50 [3] | GI50 [4] | GI50 [5] | GI50 [6] | GI50 [7] | GI50 [8] | GI50 [9] | GI50 [10] | GI50 [11] | GI50 [12] | GI50 [13] | GI50 [14] | GI50 [15] | GI50 [16] | GI50 [17] | GI50 [18] | GI50 [19] | GI50 [20]
1 | C[Si](C)(C)CCOCN(C(=O)C1=CCC2(CC1)OCCO2)c1ccccc1I | 18.2 µM (inactive) | 14.8 µM (inactive) | 22.6 µM (inactive) | 15.8 µM (inactive) | 8.02 µM (inactive) | 20 µM (inactive) | 20.9 µM (inactive) | 19.4 µM (inactive) | 21.8 µM (inactive) | 21.1 µM (inactive) | 21.6 µM (inactive) | 17.5 µM (inactive) | 25.4 µM (inactive) | 16.8 µM (inactive) | 29 µM (inactive) | 20.7 µM (inactive) | 18.6 µM (inactive) | 32.5 µM (inactive) | 14.1 µM (inactive) | 14.2 µM (inactive)
2 | N#Cc1c(-c2ccc(Cl)cc2)c2c([nH]c1=O)-c1cc([N+](=O)[O-])ccc1CCC2 | 24.1 µM (inactive) | 17.1 µM (inactive) | 25.3 µM (inactive) | 25.2 µM (inactive) | 35.4 µM (inactive) | 14.1 µM (inactive) | 21.1 µM (inactive) | 16 µM (inactive) | 17.3 µM (inactive) | 13.3 µM (inactive) | 12.8 µM (inactive) | 16.1 µM (inactive) | 25.2 µM (inactive) | 28.7 µM (inactive) | 17.5 µM (inactive) | 20.3 µM (inactive) | 15.2 µM (inactive) | 20.5 µM (inactive) | 14.3 µM (inactive) | 24.9 µM (inactive)
3 | ON=C(CC(O)(C(F)(F)Cl)C(F)(F)Cl)CC(O)(C(F)(F)Cl)C(F)(F)Cl | – | 5.04 µM (inactive) | 3.66 µM (inactive) | 3.52 µM (inactive) | > 10 µM (inactive) | 4.1 µM (inactive) | 4.38 µM (inactive) | 3.33 µM (inactive) | 3.55 µM (inactive) | 3.21 µM (inactive) | 3.23 µM (inactive) | 2.7 µM (inactive) | 5.56 µM (inactive) | 2.99 µM (inactive) | 5.26 µM (inactive) | 2.84 µM (inactive) | 2.56 µM (inactive) | 6.9 µM (inactive) | 3.29 µM (inactive) | 3.87 µM (inactive)
4 | O=[N+]([O-])c1ccccc1S(=O)(=O)c1cc(Cl)cc2c1NCCC2 | 63 µM (inactive) | > 100 µM (inactive) | 56.6 µM (inactive) | 40.1 µM (inactive) | 37.5 µM (inactive) | 77.3 µM (inactive) | 35.6 µM (inactive) | 50.2 µM (inactive) | > 100 µM (inactive) | – | > 100 µM (inactive) | 63 µM (inactive) | 36.1 µM (inactive) | > 100 µM (inactive) | 43.9 µM (inactive) | > 100 µM (inactive) | – | > 100 µM (inactive) | 41.7 µM (inactive) | 39.4 µM (inactive)
5 | CC1=NN(c2nc(N)nc(/C(C#N)=C\c3cccc([N+](=O)[O-])c3)n2)C(C)(C)C1 | 20 µM (inactive) | 29.9 µM (inactive) | 15.8 µM (inactive) | 18.5 µM (inactive) | 11.9 µM (inactive) | 4.31 µM (inactive) | 20.7 µM (inactive) | 5.32 µM (inactive) | 10.7 µM (inactive) | 2.92 µM (inactive) | 6.76 µM (inactive) | 5.19 µM (inactive) | 10.8 µM (inactive) | 11.9 µM (inactive) | 7.13 µM (inactive) | 5.13 µM (inactive) | 10.1 µM (inactive) | 7.29 µM (inactive) | 10.4 µM (inactive) | 6.82 µM (inactive)
6 | COC(=O)c1cc(C)ccc1/C=C1\Cc2cccc(C)c2C1=O | > 100 µM (inactive) | 33.1 µM (inactive) | 38.7 µM (inactive) | 57.5 µM (inactive) | 9.02 µM (inactive) | > 100 µM (inactive) | 22 µM (inactive) | 44.7 µM (inactive) | 98.9 µM (inactive) | 10.5 µM (inactive) | 19.5 µM (inactive) | 61.9 µM (inactive) | 12.3 µM (inactive) | – | 8.77 µM (inactive) | 31.2 µM (inactive) | > 100 µM (inactive) | 14.1 µM (inactive) | 18.1 µM (inactive) | 30.5 µM (inactive)
7 | CCc1ncnc2cc(OCC3CO3)c(OC)cc12 (configuration not stated) | 5.28 µM (inactive) | 10.6 µM (inactive) | 1.37 µM (inactive) | 5.77 µM (inactive) | 1.1 µM (active) | 5.53 µM (inactive) | 13.6 µM (inactive) | 2.03 µM (inactive) | 2.64 µM (inactive) | 2.31 µM (inactive) | 11.1 µM (inactive) | 2.28 µM (inactive) | 0.436 µM (active) | 22.9 µM (inactive) | 0.646 µM (active) | 3.18 µM (inactive) | 2.61 µM (inactive) | 0.647 µM (active) | 0.577 µM (active) | 0.557 µM (active)
8 | CCOP(=O)(OCC)C(C)(CC)NC1=NC(C(F)(F)F)(C(F)(F)F)NC(=O)N1 (configuration not stated) | > 100 µM (inactive) | > 100 µM (inactive) | > 100 µM (inactive) | 29.8 µM (inactive) | > 100 µM (inactive) | > 100 µM (inactive) | > 100 µM (inactive) | > 100 µM (inactive) | > 100 µM (inactive) | – | > 100 µM (inactive) | > 100 µM (inactive) | > 100 µM (inactive) | > 100 µM (inactive) | > 100 µM (inactive) | > 100 µM (inactive) | > 100 µM (inactive) | > 100 µM (inactive) | > 100 µM (inactive) | > 100 µM (inactive)
9 | N#CCCN(CCC#N)c1ccc(/C=C2\N=C(c3ccccc3)N(c3ccccn3)C2=O)cc1 | > 100 µM (inactive) | > 100 µM (inactive) | > 100 µM (inactive) | > 100 µM (inactive) | > 100 µM (inactive) | > 100 µM (inactive) | > 100 µM (inactive) | > 100 µM (inactive) | > 100 µM (inactive) | – | > 100 µM (inactive) | > 100 µM (inactive) | > 100 µM (inactive) | > 100 µM (inactive) | > 100 µM (inactive) | > 100 µM (inactive) | – | > 100 µM (inactive) | > 100 µM (inactive) | > 100 µM (inactive)
10 | CCOC(=O)c1nc2ccc(C(F)(F)F)cc2nc1Oc1ccc(C#N)cc1 | 18.5 µM (inactive) | 14 µM (inactive) | 29.9 µM (inactive) | 14.3 µM (inactive) | > 100 µM (inactive) | 46.7 µM (inactive) | 25.5 µM (inactive) | 40.3 µM (inactive) | 15.5 µM (inactive) | – | – | 20 µM (inactive) | > 100 µM (inactive) | 15.7 µM (inactive) | 39.6 µM (inactive) | 15.5 µM (inactive) | 40.3 µM (inactive) | 19.6 µM (inactive) | 48.5 µM (inactive) | 18.2 µM (inactive)
11 | CCOC(=O)c1c(N2CCOCC2)[nH]c(=O)c(C(c2ccc(OC)cc2)c2c(O)c(C(=O)OCC)c(N3CCOCC3)[nH]c2=O)c1O | > 100 µM (inactive) | > 100 µM (inactive) | > 100 µM (inactive) | > 100 µM (inactive) | > 100 µM (inactive) | > 100 µM (inactive) | > 100 µM (inactive) | > 100 µM (inactive) | > 100 µM (inactive) | > 100 µM (inactive) | > 100 µM (inactive) | > 100 µM (inactive) | > 100 µM (inactive) | > 100 µM (inactive) | > 100 µM (inactive) | > 100 µM (inactive) | > 100 µM (inactive) | > 100 µM (inactive) | > 100 µM (inactive) | > 100 µM (inactive)
12 | Nc1nccc(NCC2(CO)CCC2)n1 | – | > 100 µM (inactive) | > 100 µM (inactive) | > 100 µM (inactive) | > 100 µM (inactive) | > 100 µM (inactive) | > 100 µM (inactive) | > 100 µM (inactive) | > 100 µM (inactive) | > 100 µM (inactive) | > 100 µM (inactive) | > 100 µM (inactive) | > 100 µM (inactive) | – | > 100 µM (inactive) | > 100 µM (inactive) | > 100 µM (inactive) | > 100 µM (inactive) | > 100 µM (inactive) | 68.9 µM (inactive)
13 | O=C(/C=C/c1ccc(/C=C/C(=O)c2ccc(O)cc2)cc1)c1ccc(O)cc1 | > 100 µM (inactive) | > 100 µM (inactive) | > 100 µM (inactive) | > 100 µM (inactive) | > 100 µM (inactive) | > 100 µM (inactive) | > 100 µM (inactive) | > 100 µM (inactive) | > 100 µM (inactive) | > 10 µM (inactive) | > 100 µM (inactive) | > 100 µM (inactive) | > 100 µM (inactive) | – | 33.8 µM (inactive) | > 100 µM (inactive) | > 100 µM (inactive) | > 100 µM (inactive) | > 100 µM (inactive) | > 100 µM (inactive)
14 | CNc1c2c(c3nc4ccccc4c4c3c1N=C4)NCCC2=O [PLAKINIDINE A] | > 10 µM (inactive) | > 10 µM (inactive) | 2.07 µM (inactive) | > 10 µM (inactive) | 2.43 µM (inactive) | 3.15 µM (inactive) | > 10 µM (inactive) | 3.56 µM (inactive) | 3.33 µM (inactive) | 3.27 µM (inactive) | 8.57 µM (inactive) | 5.41 µM (inactive) | 1.9 µM (inactive) | 8.04 µM (inactive) | – | 8.59 µM (inactive) | 7.13 µM (inactive) | 2.38 µM (inactive) | 1.77 µM (inactive) | 2.66 µM (inactive)
